Test results as given in US12708649B2, “Compositions and methods for improving skin health and for the treatment and prevention of diseases, disorders and conditions associated with fungi and other pathogenic microbes” (priority 2020, dated 2026).
Values after ≈ are worked out from the molar mass of the structure shown. Like-named read-outs stand apart in the source and are kept apart here.

Tests used:
DB10033 = assay: Antibiotic MIC tests; format: cell-based, Bacillus altitudinis; conditions: for MIC: Bacillus altitudinis
DB02473 = assay: Antibiotic MIC tests; format: cell-based
DB05646 = assay: Antibiotic MIC tests; format: cell-based, Alcaligenes faecalis; conditions: for MIC: Alcaligenes faecalis
DB00376 = assay: Antibiotic MIC tests; format: cell-based
E. coli ATCC 25922 = conditions: MIC; cited from earlier work
[1] = 24 h, read-out: MIC, DB05646 24 hr
[2] = 48 h, read-out: MIC, DB05646 48 hr
[3] = 24 h, read-out: MIC, DB00376 24 hr
[4] = 24 h, read-out: MIC, DB10033 24 hr
[5] = 48 h, read-out: MIC, DB10033 48 hr
[6] = 24 h; read-out: MIC, DB02473 24 hr
[7] = 48 h, read-out: MIC, DB00376 48 hr
[8] = 48 h; read-out: MIC, DB02473 48 hr

Compound	MIC, DB10033 24 hr (DB10033)	MIC, DB10033 48 hr (DB10033)	MIC, DB02473 24 hr (DB02473; 24 hr)	MIC, DB02473 48 hr (DB02473; 48 hr)	MIC, DB05646 24 hr (DB05646)	MIC, DB05646 48 hr (DB05646)	MIC, DB00376 24 hr (DB00376)	MIC, DB00376 48 hr (DB00376)	MIC (DB05646; [1])	MIC (DB05646; [2])	MIC (DB00376; [3])	E. coli ATCC 25922 CLSI QC Range (E. coli ATCC 25922)	MIC (DB10033; [4])	MIC (DB10033; [5])	MIC (DB02473; [6])	MIC (DB00376; [7])	MIC (DB02473; [8])	MIC (DB02473; 24 h, read-out: MIC, DB02473 24 hr)	MIC (DB02473; 48 h, read-out: MIC, DB02473 48 hr)
Neomycin	0.125 mg/L	0.125 mg/L	≤0.06 mg/L	0.25 mg/L	8 mg/L	16 mg/L	0.125 mg/L	0.25 mg/L	–	–	–	–	–	–	–	–	–	–	–
CN(C)[C@@H]1C(O)=C(C(N)=O)C(=O)[C@@]2(O)C(O)=C3C(=O)c4c(O)cccc4[C@@](C)(O)[C@H]3C[C@@H]12 [Tetracycline]	–	–	–	–	–	–	–	–	4 mg/L (≈ 9 µM)	16 mg/L (≈ 36 µM)	0.0625 mg/L (≈ 0.141 µM)	–	–	–	–	–	–	–	–
Polymyxin B	8 mg/L	16 mg/L	4 mg/L	8 mg/L	1 mg/L	1 mg/L	8 mg/L	16 mg/L	–	–	–	0.25 to 2 µg/mL	–	–	–	–	–	–	–
[H]/N=C(\N/C(=N/[H])NCCCCCCNC(=N)NC(=N)Nc1ccc(Cl)cc1)Nc1ccc(Cl)cc1 [Chlorhexidine]	–	–	–	–	–	–	–	–	32 mg/L (≈ 63.3 µM)	32 mg/L (≈ 63.3 µM)	0.5 mg/L (≈ 0.989 µM)	–	1 mg/L (≈ 1.98 µM)	2 mg/L (≈ 3.96 µM)	1 mg/L (≈ 1.98 µM)	1 mg/L (≈ 1.98 µM)	–	–	–
CC[C@H]1OC(=O)[C@H](C)[C@@H](O[C@H]2C[C@@](C)(OC)[C@@H](O)[C@H](C)O2)[C@H](C)[C@@H](O[C@@H]2O[C@H](C)C[C@H](N(C)C)[C@H]2O)[C@](C)(O)C[C@@H](C)CN(C)[C@H](C)[C@@H](O)[C@]1(C)O [Azithromycin]	–	–	–	–	–	–	–	–	2 mg/L (≈ 2.67 µM)	2 mg/L (≈ 2.67 µM)	0.25 mg/L (≈ 0.334 µM)	–	0.2 mg/L (≈ 0.267 µM)	0.2 mg/L (≈ 0.267 µM)	0.5 mg/L (≈ 0.668 µM)	1 mg/L (≈ 1.34 µM)	–	–	–
C[C@@H](O)[C@H]1C(=O)N2C(C(=O)O)=C(S[C@@H]3CN[C@H](C(=O)N(C)C)C3)[C@H](C)[C@H]12 [Meropenem]	–	–	–	–	–	–	–	–	≤ 0.06 mg/L	≤ 0.06 mg/L	≤ 0.06 mg/L	0.008 to 0.06 µg/mL	≤ 0.06 mg/L	0.125 mg/L (≈ 0.326 µM)	≤ 0.06 mg/L	≤ 0.06 mg/L	≤ 0.06 mg/L	–	–
CCC[C@@H]1C[C@@H](C(=O)N[C@@H]([C@H]2O[C@H](SC)[C@H](O)[C@@H](O)[C@H]2O)[C@H](C)Cl)N(C)C1 [Clindamycin]	–	–	–	–	–	–	–	–	> 64 mg/L	> 64 mg/L	1 mg/L (≈ 2.35 µM)	–	0.125 mg/L (≈ 0.294 µM)	2 mg/L (≈ 4.71 µM)	0.5 mg/L (≈ 1.18 µM)	4 mg/L (≈ 9.41 µM)	2 mg/L (≈ 4.71 µM)	–	–
C[C@H]1[C@H](NC(=O)/C(=N\OC(C)(C)C(=O)O)c2csc(N)n2)C(=O)N1S(=O)(=O)O [Aztreonam]	–	–	–	–	–	–	–	–	32 mg/L (≈ 73.5 µM)	32 mg/L (≈ 73.5 µM)	16 mg/L (≈ 36.7 µM)	0.06 to 0.25 µg/mL	> 64 mg/L	> 64 mg/L	> 64 mg/L	> 64 mg/L	> 64 mg/L	–	–
O=C(N[C@H](CO)[C@H](O)c1ccc([N+](=O)[O-])cc1)C(Cl)Cl [Chloramphenicol]	–	–	–	–	–	–	–	–	8 mg/L (≈ 24.8 µM)	16 mg/L (≈ 49.5 µM)	2 mg/L (≈ 6.19 µM)	–	2 mg/L (≈ 6.19 µM)	4 mg/L (≈ 12.4 µM)	–	8 mg/L (≈ 24.8 µM)	–	4 mg/L (≈ 12.4 µM)	16 mg/L (≈ 49.5 µM)
